Experimental data: patent US20250179025A1, “CRYSTALLINE FORM OF DAROLUTAMIDE” (QUÍMICA SINTÉTICA, S.A., priority 2022, published 2025)
In brackets after ≈: the same amount, converted by molar mass. Where two headings read alike, the source gives them in different places.

Key:
[1] = Determination of specific surface area (SSA), multi-point nitrogen adsorption BET; type: physicochemical; conditions: samples vacuum dried overnight at 45° C.; relative pressure 0.05-0.3 p/p0; eleven linear points
Text: The term “about” includes the range of experimental errors, which can normally occur performing a measurement, e.g. ±5% or ±2% or ±1%. Sometimes, such a range can lie within the experimental error, typical of standard methods used for the measurement and/or determination of a given value or range. Particularly, the measurement uncertainty for the Multi-Point B.E.T. specific surface area parameter is equal to 15% for a SSA value greater than 2 m^2/g, and 20% for a SSA less than 2 m^2/g. It is expressed as extended uncertainty obtained by multiplying standard uncertainty by the coverage factor k equal to 2, corresponding to confidence level of about 95%. The uncertainty is related to the method of analysis and obtained as percent value from the analysis of a representative group of samples in the measurement range of the instrument.
Unless otherwise indicated, the data relative to the peaks in the XRPD pattern are meant within the common uncertainty due to the instrument measurement, typically ±0.2 degrees 2θ, when collected with the Kα radiation of copper (λ=1.5419 Å) at room temperature. The present invention provides, in one aspect, a new form of N-[(2S)-1-[3-(3-chloro-4-cyanophenyl)-1H-pyrazol-1-yl]-propan-2-yl]-5-(1-hydroxyethyl)-1H-pyrazole-3-carboxamide (darolutamide), herein called nanocrystalline form or NC form or Form NC, said nanocrystalline form being characterized by having specific surface area (SSA) in the range from about 40 m^2/g to about 150 m^2/g, preferably from about 50 m^2/g to about 135 m^2/g, more preferably from about 60 m^2/g to about 135 m^2/g analyzed using the multi-point nitrogen adsorption technique based on the Brunauer, Emmett and Teller (BET) theory, for example using TriStar (II) automated gas adsorption analyzer, (Micromeritics, Inc.). The samples are suitably vacuum dried overnight at 45° C. The volumetric method can be used at the relative pressure range of 0.05-0.3 p/p0 as reported in the experimental part. Specific surface area is an important physical property for an active pharmaceutical ingredient. This parameter can greatly influence the process of preparation of drugs, such as filtration, purification, blending, tableting as well as the characteristics of the active pharmaceutical ingredient especially its dissolution rate and, in turn, its bio-availability as generally known in the art, e.g. from Kyung Rok Chu et al. Effect of particle size on the dissolution behaviours of poorly water-soluble drugs, Arch. Pharm. Res., 2012 July, 35(7), 1187-95, DOI 10.1007/s12272-012-0709-3.
The specific surface area was measured using the multi-point nitrogen adsorption technique based on the Brunauer, Emmett and Teller (BET) theory using TriStar (II) automated gas adsorption analyzer (Micromeritics, Inc.). All the samples were dried under vacuum overnight hours at 45° C. The volumetric method was applied at the relative pressure range 0.05-0.3 p/p^0, and the Specific Surface Area values were calculated in said pressure range using “Multi-Point BET” calculation method based on eleven linear points.

[2] = values reported in WO 2018/162793 or by its applicant in annex 1 during European prosecution; cited from earlier work
[3] = poorly soluble in the physiological pH range; cited from earlier work
[4] = Stability study at 40° C. and 75% RH (HPLC purity, XRPD); type: physicochemical; conditions: double PE bag in HDPE bottle, 1, 3, 6 and 12 months
Description: 5 aliquots of about 1 g of nanocrystalline form of present invention were stored at the following conditions wherein RH is referred to relative humidity: • 40° C. and 75% RH, double PE bag in HDPE bottle
The sample were analysed before the storage (To), after 1 month, 3 months, 6 months and 12 months using high performance chromatography (HPLC) method to control the purity and X-ray powder diffractogram (XRPD) to evaluate any change in crystalline form.

## CC(O)c1cc(C(=O)N[C@@H](C)Cn2ccc(-c3ccc(C#N)c(Cl)c3)n2)[nH]n1 (single isomer, unassigned) [Example 3, darolutamide]
[1]
  Specific Surface Area (SSA) Multi-point BET: 134.0 m^2/g
0 min, pH 1
  Concentration of Darolutamide in saturated solution: 0 µg/mL
0 min, pH 7.5
  Concentration of Darolutamide in saturated solution: 0 µg/mL
5 min, pH 1
  Concentration of Darolutamide in saturated solution: 159 µg/mL
5 min, pH 7.5
  Concentration of Darolutamide in saturated solution: 162 µg/mL
10 min, pH 1
  Concentration of Darolutamide in saturated solution: 162 µg/mL
10 min, pH 7.5
  Concentration of Darolutamide in saturated solution: 155 µg/mL
60 min, pH 1
  Concentration of Darolutamide in saturated solution: 117 µg/mL
60 min, pH 7.5
  Concentration of Darolutamide in saturated solution: 132 µg/mL

## CC(O)c1cc(C(=O)N[C@@H](C)Cn2ccc(-c3ccc(C#N)c(Cl)c3)n2)[nH]n1 (single isomer, unassigned) [Example 4, darolutamide]
[1]
  Specific Surface Area (SSA) Multi-point BET: 111.7 m^2/g
0 min, pH 1
  Concentration of Darolutamide in saturated solution: 0 µg/mL
0 min, pH 7.5
  Concentration of Darolutamide in saturated solution: 0 µg/mL
5 min, pH 1
  Concentration of Darolutamide in saturated solution: 137 µg/mL
5 min, pH 7.5
  Concentration of Darolutamide in saturated solution: 157 µg/mL
10 min, pH 1
  Concentration of Darolutamide in saturated solution: 146 µg/mL
10 min, pH 7.5
  Concentration of Darolutamide in saturated solution: 149 µg/mL
60 min, pH 1
  Concentration of Darolutamide in saturated solution: 113 µg/mL
60 min, pH 7.5
  Concentration of Darolutamide in saturated solution: 109 µg/mL

## CC(O)c1cc(C(=O)N[C@@H](C)Cn2ccc(-c3ccc(C#N)c(Cl)c3)n2)[nH]n1 (single isomer, unassigned) [Example 5, darolutamide]
[1]
  Specific Surface Area (SSA) Multi-point BET: 66.8 m^2/g
0 min, pH 1
  Concentration of Darolutamide in saturated solution: 0 µg/mL
0 min, pH 7.5
  Concentration of Darolutamide in saturated solution: 0 µg/mL
5 min, pH 1
  Concentration of Darolutamide in saturated solution: 117 µg/mL
5 min, pH 7.5
  Concentration of Darolutamide in saturated solution: 128 µg/mL
10 min, pH 1
  Concentration of Darolutamide in saturated solution: 126 µg/mL
10 min, pH 7.5
  Concentration of Darolutamide in saturated solution: 132 µg/mL
60 min, pH 1
  Concentration of Darolutamide in saturated solution: 113 µg/mL
60 min, pH 7.5
  Concentration of Darolutamide in saturated solution: 109 µg/mL

## CC(O)c1cc(C(=O)N[C@@H](C)Cn2ccc(-c3ccc(C#N)c(Cl)c3)n2)[nH]n1 (stereo partly drawn) [Comparative example 1a, darolutamide]
[1]
  Specific Surface Area (SSA) Multi-point BET: 26.6 m^2/g
0 min, pH 1
  Concentration of Darolutamide in saturated solution: 0 µg/mL
0 min, pH 7.5
  Concentration of Darolutamide in saturated solution: 0 µg/mL
5 min, pH 1
  Concentration of Darolutamide in saturated solution: 20 µg/mL
5 min, pH 7.5
  Concentration of Darolutamide in saturated solution: 20 µg/mL
10 min, pH 1
  Concentration of Darolutamide in saturated solution: 20 µg/mL
10 min, pH 7.5
  Concentration of Darolutamide in saturated solution: 21 µg/mL
60 min, pH 1
  Concentration of Darolutamide in saturated solution: 17 µg/mL
60 min, pH 7.5
  Concentration of Darolutamide in saturated solution: 19 µg/mL

## CC(O)c1cc(C(=O)N[C@@H](C)Cn2ccc(-c3ccc(C#N)c(Cl)c3)n2)[nH]n1 (stereo partly drawn) [Comparative example 1b, darolutamide]
[1]
  Specific Surface Area (SSA) Multi-point BET: 29.5 m^2/g

## CC(O)c1cc(C(=O)N[C@@H](C)Cn2ccc(-c3ccc(C#N)c(Cl)c3)n2)[nH]n1 (stereo partly drawn) [Comparative example 1c, darolutamide]
[1]
  Specific Surface Area (SSA) Multi-point BET: 34.4 m^2/g

## CC(O)c1cc(C(=O)N[C@@H](C)Cn2ccc(-c3ccc(C#N)c(Cl)c3)n2)[nH]n1 (stereo partly drawn) [Comparative example 2, darolutamide]
[1]
  Specific Surface Area (SSA) Multi-point BET: 11.6 m^2/g
0 min, pH 1
  Concentration of Darolutamide in saturated solution: 0 µg/mL
0 min, pH 7.5
  Concentration of Darolutamide in saturated solution: 0 µg/mL
5 min, pH 1
  Concentration of Darolutamide in saturated solution: 23 µg/mL
5 min, pH 7.5
  Concentration of Darolutamide in saturated solution: 22 µg/mL
10 min, pH 1
  Concentration of Darolutamide in saturated solution: 22 µg/mL
10 min, pH 7.5
  Concentration of Darolutamide in saturated solution: 18 µg/mL
60 min, pH 1
  Concentration of Darolutamide in saturated solution: 22 µg/mL
60 min, pH 7.5
  Concentration of Darolutamide in saturated solution: 21 µg/mL

## CC(O)c1cc(C(=O)N[C@@H](C)Cn2ccc(-c3ccc(C#N)c(Cl)c3)n2)[nH]n1 (stereo partly drawn) [Crystalline rounded particles sample A unmilled] [darolutamide]
[2]
  Specific Surface Area (SSA) Multi-point BET: 13 m^2/g

## CC(O)c1cc(C(=O)N[C@@H](C)Cn2ccc(-c3ccc(C#N)c(Cl)c3)n2)[nH]n1 (stereo partly drawn) [Crystalline rounded particles sample B unmilled] [darolutamide]
[2]
  Specific Surface Area (SSA) Multi-point BET: 12 m^2/g

## CC(O)c1cc(C(=O)N[C@@H](C)Cn2ccc(-c3ccc(C#N)c(Cl)c3)n2)[nH]n1 (stereo partly drawn) [Example 10, darolutamide]
[1]
  Specific Surface Area (SSA) Multi-point BET: 121.6 m^2/g

## CC(O)c1cc(C(=O)N[C@@H](C)Cn2ccc(-c3ccc(C#N)c(Cl)c3)n2)[nH]n1 (stereo partly drawn) [Example 11, darolutamide]
[1]
  Specific Surface Area (SSA) Multi-point BET: 66.6 m^2/g

## CC(O)c1cc(C(=O)N[C@@H](C)Cn2ccc(-c3ccc(C#N)c(Cl)c3)n2)[nH]n1 (stereo partly drawn) [Example 23, darolutamide]
[1]
  Specific Surface Area (SSA) Multi-point BET: 46.0 m^2/g

## CC(O)c1cc(C(=O)N[C@@H](C)Cn2ccc(-c3ccc(C#N)c(Cl)c3)n2)[nH]n1 (stereo partly drawn) [Example 24, darolutamide]
[1]
  Specific Surface Area (SSA) Multi-point BET: 43.8 m^2/g

## CC(O)c1cc(C(=O)N[C@@H](C)Cn2ccc(-c3ccc(C#N)c(Cl)c3)n2)[nH]n1 (stereo partly drawn) [Form I, darolutamide]
5 min
  solubility concentration: 20 µg/mL (≈ 50.1 µM)
[2]
  Specific Surface Area (SSA) Multi-point BET: 22.1 m^2/g

## CC(O)c1cc(C(=O)N[C@@H](C)Cn2ccc(-c3ccc(C#N)c(Cl)c3)n2)[nH]n1 (stereo partly drawn) [crystalline rounded particles, darolutamide]
5 min
  solubility concentration: 20 µg/mL

## CC(O)c1cc(C(=O)N[C@@H](C)Cn2ccc(-c3ccc(C#N)c(Cl)c3)n2)[nH]n1 (stereo partly drawn) [darolutamide, N-[(2S)-1-[3-(3-chloro-4-cyanophenyl)-1H-pyrazol-1-yl]-propan-2-yl]-5-(1-hydroxyethyl)-1H-pyrazole-3-carboxamide]
[3]
  Biopharmaceutics Classification System (BCS) class: class II

## CC(O)c1cc(C(=O)N[C@@H](C)Cn2ccc(-c3ccc(C#N)c(Cl)c3)n2)[nH]n1 (stereo partly drawn) [nanocrystalline form, N-[(2S)-1-[3-(3-chloro-4-cyanophenyl)-1H-pyrazol-1-yl]-propan-2-yl]-5-(1-hydroxyethyl)-1H-pyrazole-3-carboxamide]
[4]
  chemical stability: purity by HPLC versus initial profile at T0: does not present a significant worsening of the purity
  physical stability: change in crystalline form by XRPD: no signs of transformation into a different crystalline form
5 min
  solubility concentration: 120 to 160 µg/mL
